Laboratory results as given in patent publication US20110201648A1, “POLY-HETEROARYL DERIVATIVES FOR THE TREATMENT OF CANCER” (INSTITUT CURIE, priority 2008, published 2011).

Experiments:
c-myc quadruplex-DNA = experiment: Fluorescence titration with c-myc; type: binding; conditions: 0.25 μM compound, cacodylate buffer + 100 mM KCl, λex=340 nm
Protocol: The intra-quadruplex selectivity is evaluated through fluorescence titrations by comparison of experiments carried out with 22AG (see above) and with two other quadruplex-structures: c-myc and c-kit2. The formation of these two quadruplex-DNAs is currently highly suspected in the promoter region of c-myc (see above) and c-kit (22; 29 and 30)oncogenes. The sequences are the following: c-myc: [5′-[…]-3′] and c-kit2: [(5′-[…]-3′]; Quadruplex-structures are prepared by heating the corresponding oligonucleotide at 90° C. for 5 min in a 10 mM sodium cacodylate buffer pH 7.2, 100 mM KCl and cooling in ice to favor the intramolecular folding by kinetic trapping. Concentrations are determined by UV-Vis measurements (after thermal denaturation, 5 min at 85° C.) at 260 nm before use.

c-kit2 quadruplex-DNA = experiment: Circular dichroism with c-kit2; type: binding; conditions: 3 μM c-kit2, 30 μM compound, 100 mM KCl, 285 nm
Protocol: Circular dichroism (CD) enables a deep study of the modification of the DNA structure upon the binding of a ligand; it thus reflects the affinity of the ligand to its target, and can also provide insight into its binding mode (Paramasivan et al, Methods, 2007, 43, 324).
The intra-quadruplex selectivity is evaluated through CD by comparison of experiments carried out with 22AG (see above) and with two other quadruplex-structures: c-myc and c-kit2 (see above). The results are given on FIG. 11A and FIG. 11B. To a 3 μM solution of both c-kit2 (left) and c-myc (right) in cacodylate buffer (10 mM sodium cacodylate+100 mM KCl) is added an excess of compound 3 (30 μM, 10 equiv.).

[1] = tested on: 22AG quadruplex-DNA (human telomeric sequence); experiment: Fluorescence titration with 22AG; type: binding; conditions: 0.25 μM compound, λex=340 nm
Protocol: The quadruplex-DNA used herein is 22AG: it results from the folding of a 22 nt oligonucleotide that mimics the human telomeric sequence: 22AG is [5′-AG3(T2AG3)3-3′]. Quadruplex-structure from 22AG is prepared by heating the corresponding oligonucleotide at 90° C. for 5 min in a 10 mM sodium cacodylate buffer pH 7.2, 100 mM NaCl (for 22AG Na) or KCl (for 22AG K) and cooling in ice to favor the intramolecular folding by kinetic trapping. Concentrations are determined by UV-Vis measurements (after thermal denaturation, 5 min at 85° C.) at 260 nm before use. (see FIG. 7A and FIG. 7B).

[2] = tested on: FPf1T (plasmodium telomeric quadruplex-DNA); experiment: FRET-melting assay with FPf1T; type: binding, Plasmodium falciparum; conditions: 0.2 μM FPf1T, 1 μM compound
Protocol: (§1) Stabilization, and so interaction, of compounds with quadruplex-structure is monitored via FRET-melting assay, in a version that also enables the determination of the quadruplex-over duplex-DNA selectivity as well as the intra-quadruplex selectivity (17).
(§2) FRET assay is performed with oligonucleotides that mimic the human or plasmodium telomeric sequences, and equipped with FRET partners at each extremities: F21T (FAM-G3[T2AG3]3-Tamra,) FPf1T (FAM-G3[T3AG3]3-Tamra) and FPf8T (FAM-G3[T2CAG3]3-Tamra) with FAM: 6-carboxyfluorescein and Tamra: 6-carboxy-tetramethylrhodamine). Measurements were made with excitation at 492 nm and detection at 516 nm.
(§3) Fluorescence melting were carried out. The results are given on FIG. 3A-FIG. 3C. The experiments were carried out with 0.2 μM of F21T, FPf1T or FPf8T in a buffer containing 10 mM lithium cacodylate pH 7.2 and 100 mM NaCl or KCl (see example of F21T below, NaCl (left) and KCl (right)); the melting of the quadruplex-DNA was monitored alone and in the presence of 1 μM (5 equiv.) of compound 3.

[3] = tested on: HT1080GFP-POT1 human fibrosarcoma and U20S human osteosarcoma cells; experiment: Inhibition of cell proliferation, viable cell count with trypan blue; type: cell-based; conditions: 72 hours, read-out: IC50 proliferation of cancer cells
Protocol: The HT1080 human fibrosarcoma cell line stably transfected with pEGFP-POT1 vector (HT1080GFP-POT1) has been previously described (32) and U20S human osteosarcoma was from American Type Culture Collection (Rockville, USA). Cells were grown in Dublecco's modified Eagles's medium (Invitrogen) supplemented with 10% v/v fetal bovine serum and with 400 μg/ml geneticin for HT1080GFP-POT1. Cells were plated in 6-wells culture plates on day 0 at 4.5×10^4 cells/well in the presence of different concentrations of compound 3 (10, 3, 1, 0.3 and 0.1 μM), each concentration in duplicate, and cultured for further 72 hours. At day 3, cells were washed with 1×PBS and trypsinized. For each treated cell sample, the number of viable cells was determined in the presence of trypan blue. Results are given on FIG. 15A and FIG. 15B. They correspond to the relative cell number in percent as compared to control untreated cells defined as 100%.

[4] = tested on: FPf8T (plasmodium telomeric quadruplex-DNA); experiment: FRET-melting assay with FPf8T; type: binding, Plasmodium falciparum; conditions: 0.2 μM FPf8T, 1 μM compound
Protocol: as §1, §2, §3

[5] = Fluorescence quantum yield; type: physicochemical; conditions: anthracene in ethanol as reference
Protocol: Pyridine-based polyheteroaromatic compounds detailed in this study are characterized by a strong fluorescence. Remarkably, the quantum yield is not affected by the nature of the solvent they are used in, from pure organic (e.g. DMSO) to physiological conditions (e.g. buffer: 10 mM sodium cacodylate+100 mM KCl, pH 7.2, see Table). The modification of the fluorescence properties of studied compounds upon interaction with DNA enables to compare their apparent binding affinity for several quadruplexes of biological relevance (27).
NB: the quantum yields (and standard deviations (s.d.)) of compound 3 were measured in CH2Cl2 (DCM) and water, with anthracene in ethanol as reference.

[6] = UV-Vis titrations for solubility; type: physicochemical
Protocol: The study of UV-vis properties of pyridine-based polyheteroaromatic compounds detailed in this study enable the determination of their solubility in various conditions (DMSO, H2O and cacodylate buffers (10 mM sodium cacodylate+100 mM NaCl (for Caco.Na) or KCl (for Caco.K)): the simplest method for this is to measure the absorption spectra of compound 3 at various concentrations (from 0 to 32 μM); solubility of compound 3 is thus evaluated through the reporting of its absorbance at a given wavelength (herein 338 nm (A338)) as a function of the concentration of compound 3 and applying the Beer-Lambert law.

Question: Which results are given for `c1cc(-c2cnc(-c3cccc(-c4cnco4)n3)o2)nc(-c2cnc(-c3cccc(-c4cnco4)n3)o2)c1` [compound 3, 2,6-bis{2-[6-(oxazol-5-yl)pyridin-2-yl]oxazol-5-yl}pyridine]?
Answer: melting point: > 250 °C; fluorescence of compound upon addition of c-myc (c-myc quadruplex-DNA): progressive quench of the fluorescence; CD signal of c-kit2 (c-kit2 quadruplex-DNA): modification of the amplitude of the CD signal; fluorescence of compound upon addition of 22AG K ([1]; cacodylate buffer + 100 mM KCl): progressive quench of the fluorescence; fluorescence of compound upon addition of 22AG Na ([1]; cacodylate buffer + 100 mM NaCl): progressive quench of the fluorescence; ΔT1/2 FPf1T ([2]; K+ (100 mM KCl)): 2.1 °C; ΔT1/2 FPf1T ([2]; Na+ (100 mM NaCl)): 20.4 °C; IC50 [3]: 100 to 1000 nM; ΔT1/2 FPf8T ([4]; K+ (100 mM KCl)): 1.5 °C; ΔT1/2 FPf8T ([4]; Na+ (100 mM NaCl)): 16.3 °C; Quantum yield ([5]; DCM (CH2Cl2)): 50.35%; Quantum yield ([5]; Water): 50.37%; solubility ([6]; DMSO, H2O and aqueous cacodylate buffers (Na+ or K+-rich), A338, 0 to 32 μM): soluble in all the solvent systems used herein; self-aggregation ([6]; within the 0 to 32 μM concentration range, all solvent systems): does not self-aggregate
